The CheMixHub ionic liquid set
± gives the uncertainty stated by the source.

Test: xn = mol fraction of the nth substance listed

## [N-]=C=S.[NH4+] + CC[n+]1ccn(C)c1.N#C[S-]
313.15 K, 100 kPa, x1 = 0.039
  electrical conductivity: 3.12 ± 0.13 S/m
  viscosity: 16.11 ± 0.76 mPa·s
318.15 K, 100 kPa, x1 = 0.039
  viscosity: 14.28 ± 0.67 mPa·s
318.15 K, 100 kPa, x1 = 0.1395
  electrical conductivity: 3.28 ± 0.13 S/m
  viscosity: 16.71 ± 0.77 mPa·s
323.15 K, 100 kPa, x1 = 0.1395
  electrical conductivity: 3.71 ± 0.15 S/m
  viscosity: 14.61 ± 0.68 mPa·s
328.15 K, 100 kPa, x1 = 0.039
  viscosity: 11.19 ± 0.53 mPa·s
333.15 K, 100 kPa, x1 = 0.099
  viscosity: 10.92 ± 0.51 mPa·s
343.15 K, 100 kPa, x1 = 0.1395
  viscosity: 9.2 ± 0.43 mPa·s
348.15 K, 100 kPa, x1 = 0.099
  viscosity: 8.08 ± 0.38 mPa·s
353.15 K, 100 kPa, x1 = 0.099
  viscosity: 7.28 ± 0.34 mPa·s
353.15 K, 100 kPa, x1 = 0.1395
  viscosity: 7.48 ± 0.35 mPa·s

## OCCO + CC[n+]1ccn(C)c1.O=C([O-])C(F)(F)F
293.15 K, 100 kPa, x1 = 1
  viscosity: 20.8 ± 0.4 mPa·s
298.15 K, 100 kPa, x1 = 1
  viscosity: 16.8 ± 0.4 mPa·s
303.15 K, 100 kPa, x1 = 1
  viscosity: 13.8 ± 0.3 mPa·s
313.15 K, 100 kPa, x1 = 1
  viscosity: 9.52 ± 0.2 mPa·s

## O=S(=O)([N-]S(=O)(=O)C(F)(F)F)C(F)(F)F.[Li+] + CC[n+]1ccn(C)c1.O=S(=O)([N-]S(=O)(=O)C(F)(F)F)C(F)(F)F
288.15 K, 101 kPa, x2 = 0.6878
  electrical conductivity: 0.094 ± 0.01 S/m
288.15 K, 101 kPa, x2 = 0.746
  electrical conductivity: 0.146 ± 0.015 S/m
288.15 K, 101 kPa, x2 = 0.7874
  electrical conductivity: 0.189 ± 0.019 S/m
288.15 K, 101 kPa, x2 = 0.8765
  electrical conductivity: 0.351 ± 0.035 S/m
288.15 K, 101 kPa, x2 = 0.9376
  electrical conductivity: 0.461 ± 0.046 S/m
298.15 K, 101 kPa, x2 = 0.6878
  electrical conductivity: 0.175 ± 0.018 S/m
298.15 K, 101 kPa, x2 = 0.746
  electrical conductivity: 0.253 ± 0.026 S/m
298.15 K, 101 kPa, x2 = 0.7874
  electrical conductivity: 0.315 ± 0.032 S/m
298.15 K, 101 kPa, x2 = 0.8
  viscosity: 89.9 ± 7.9 mPa·s
298.15 K, 101 kPa, x2 = 0.8765
  electrical conductivity: 0.539 ± 0.054 S/m
298.15 K, 101 kPa, x2 = 0.9376
  electrical conductivity: 0.686 ± 0.069 S/m
333.15 K, 101 kPa, x2 = 0.6878
  electrical conductivity: 0.739 ± 0.074 S/m
333.15 K, 101 kPa, x2 = 0.746
  electrical conductivity: 0.91 ± 0.091 S/m
333.15 K, 101 kPa, x2 = 0.7874
  electrical conductivity: 1.06 ± 0.11 S/m
333.15 K, 101 kPa, x2 = 0.8765
  electrical conductivity: 1.53 ± 0.15 S/m
333.15 K, 101 kPa, x2 = 0.9376
  electrical conductivity: 1.79 ± 0.18 S/m
358.15 K, 101 kPa, x2 = 0.8
  viscosity: 13.33 ± 0.78 mPa·s
